This test concerns Chlorella sp. Description: Algal efficacy testing of dry paint film coupons (modified ASTM 5589, 6-well plates). Type of test: cell-based, Chlorella sp. ATCC 7516. Conditions: for Total conc, ppm (concentration giving pass level ≥ 75% inhibition): total active ingredient in acrylic/silicone paint, dry film coupon, used as minimum inhibitory concentration for SI. The procedure: These paints were then diluted with a biocide free acrylic/silicone based paint and mixed to prepare targeted concentrations of biocide combinations for the testing. The total biocides concentrations obtained were 125, 250, 500, 1000, 2000 and 5000 ppm. After biocides addition or dilution, the paints were mixed 90 seconds with the horse power shaker (AXEL 75M3372/Agitateur SO-10MI) until uniformity was achieved. […] After one day, the paints were applied to Schleicher & Schuell filter paper at 280 μm wet film thickness and dried for 3 days at room temperature avoiding direct exposure to sunlight. Square discs (1.8 cm×1.8 cm) were cut out from each panel and were used as the substrate for algal efficacy tests. This sample size allowed for an agar border when the sample disc was placed into the well of the test plate.
Algal efficacy was tested according to modified ASTM 5589 which is a standard accelerated test method for determining resistance of various coatings (including paints) to algal defacement. To accommodate for high-throughput screening, this method was scaled down from petri plates to 6-well plates. Bold Modified Basal Freshwater Nutrient Solution was used as growth medium for the algal culture and Bold's agar was used for the efficacy testing. A single coupon was placed with a pair of sterile forceps at the center of the agar plug (on top) with the painted surface facing upwards. The algal inoculum was prepared by diluting an exponentially growing culture of Chlorella sp. to 1×10^6 cfu/ml.
Each well that contains a tested coupon was inoculated with 1750 μl of algal suspension (1×10^6 cfu/ml) making sure that the whole surface (paint film as well as the agar surrounding it) was evenly covered. The plates were incubated at room temp (21° C.-25° C.) with cyclic exposure to 14 hours fluorescent light followed by 10 hours darkness, for a period of three weeks.
At the end of the incubation period the samples were scored for percent inhibition regarding color intensity compared to the blank sample
The SI is calculated based on F. C. Kull et.
SI=Qa/QA+Qb/QB • Qa=the concentration of Antimicrobial A in the blend • QA=the concentration of Antimicrobial A as the only biocide • Qb=the concentration of Antimicrobial B in the blend • QB=the concentration of Antimicrobial B as the only antimicrobial
SI value of <1 in the formula indicates a synergism of the blended biocides exists.
The minimal targeted inhibition was set at 75%, meaning a coupon with at least 75% algal growth inhibition was considered as a pass.

SMILES strings stand for the structures.

By inhibition is commonly meant the share of the control response that was lost under treatment. Consider `O=c1[nH]c2c(c(=O)n1C1CCCCC1)CCC2` [Lenacil, 3-Cyclohexyl-6,7-dihydro-1H-cyclopentapyrimidine-2,4-(3H,5H)-dione], for which the inhibition at 1000 ppm (504 h) was 90%. Besides, the “Total conc, ppm (concentration giving pass level ≥ 75% inhibition)” value (three weeks) is given as 1,000 ppm.
As to `c1ccc2[nH]c(-c3cscn3)nc2c1` [Thiabendazole, 4-(1H-1,3-benzodiazol-2-yl)-1,3-thiazole], for the setting “504 h, total conc 10000 ppm in paint, three weeks, color intensity vs blank”, the inhibition at 10000 ppm came to 75%. In addition, the “Total conc, ppm (concentration giving pass level ≥ 75% inhibition)” value (three weeks) is recorded as 10000 ppm.

The values above are taken from US20190116792A1 (Dow Global Technologies LLC, priority 2016, published 2019).
